Legend:
mouse iPS cells = experiment: Teratoma formation from pretreated iPS cells in NOD/SCID mice; format: in vivo; details: iPS cells pretreated 2 days with 10 μM BRQ, subcutaneous in NOD/SCID mice, 4 weeks
Procedure: The viable cells (1×10^6) were suspended in 50 μl of Matrigel (manufactured by BD Biosciences) and injected subcutaneously into the buttocks of 5-8-week-old NOD/SCID mice anesthetized with 10% pentobarbital. Four weeks after the injection, the mice were sacrificed to death, and the tumors were removed and photographed for their size measurement according to the method described in Tsukamoto Y, et al., Stem Cells. 2016; 34(8): 2016-2025. Based on the measurement values obtained, the volume of the tumors was calculated by the following formula.
Volume of tumor (cm^3)=major diameterxminor diameterxminor diameter×½.
Then, 4 weeks after transplantation, the tumors were removed and observed.

[1] = tested on: teratomas formed from mouse ES cells; experiment: Anti-teratoma activity in NOD/SCID mice, ES cell-derived tumors; format: in vivo
Procedure: For tumors, 10-μm-thick sections were prepared and immunostained using the methods described by Kondo T. and Raff M., EMBO J. 2000; 19(9): 1998-2007, and Takanaga H, et al., Stem Cells. 2009; 27(1): 165-174. The following antibodies were used for this immunostaining.
TOCRIS) PBS solution was administered daily intraperitoneally to mice bearing subcutaneous tumors. Five days after intraperitoneal administration, the mice were sacrificed to death, and the tumors were removed and photographed for pathological analysis according to the method described in Tsukamoto Y, et al., Stem Cells. 2016; 34(8): 2016-2025.
Next, sections of these tumors were prepared, immunolabeled for the proliferation marker Ki67, pluripotent stem cell markers (Oct4 and Nanog), and differentiation markers (ATF, βIII tubulin, and SMA), and observed.

In the case of Cc1c(-c2ccc(-c3ccccc3F)cc2)nc2ccc(F)cc2c1C(=O)O [BRQ, 6-fluoro-2-(2′-fluoro-1,1′-biphenyl-4-yl)-3-methyl-4-quinoline-sodium carboxylate], the “tumor formation from pretreated cells” value (mouse iPS cells) is reported as “did not proliferate”, the “number of Oct4-positive cells and Nanog-positive cells in tumors” value ([1]; ES cell-derived tumors) is reported as “significantly decreased” and the tumor proliferation ([1]; ES cell-derived tumors, BRQ intraperitoneally) is reported as “suppressed”. For the same molecule, the “cells expressing differentiation markers (ATF, βIII tubulin, SMA) in tumors” value ([1]; ES cell-derived tumors, BRQ- vs DMSO-treated) was “similarly contained in both tumors”, the “Ki67-positive proliferating cells in tumors” value ([1]; ES cell-derived tumors, compared to DMSO-treated tumors) was “significantly reduced” and the sizes of teratomas ([1]; ES cell-derived, BRQ intraperitoneally (DMSO control 0.55 cm^3)) was 0.12 cm^3.

From patent publication US20220364065A1, “COMPOSITION FOR REMOVING PLURIPOTENT STEM CELLS AND METHOD OF REMOVING PLURIPOTENT STEM CELLS” (NATIONAL UNIVERSITY CORPORATION HOKKAIDO UNIVERSITY, priority 2018, published 2022)
